Test results: patent US9486471B2, “Combination therapy for the treatment of cancer” (McMaster University, priority 2012, dated 2016)

Key:
primary AML cells = experiment: Methocellulose blast colony formation of primary AML cells (Example 2); format: cell-based, human; conditions: 10 μM; control about 22; at least 14 days
Experimental: Normal HSCs and progenitors were sourced from either mobilized peripheral blood or umbilical cord blood of health patients. Primary AML cells were taken from patients diagnosed with AML. Both normal HSCs and primary AML cells were cultured under standard in vitro methocellulose assay conditions (see http://www.stemcell.com/en/Products/All-Products/MethoCult-H4434-Classic.aspx as well as Clinton Campbell et al. The human stem cell hierarchy is defined by a functional dependence on Mcl-1 for self-renewal capacity. Blood 116 (9) 1433-1442 (Jun. 4, 2010), hereby incorporated by reference) for at least 14 days before the number of colonies were recorded.

[1] = test system: p53 and p21 in neoplastic hPSCs; experiment: p53 and p21 accumulation in neoplastic hPSCs; format: cell-based, human; conditions: 24 h; 10 μM etoposide, 10 μM thioridazine, BMP4
Description: Antibodies. Antibodies used for immunocytochemistry were the following: Oct3/4 (BD Trunsduction Laboratories, cat#611203), Sox2 (R&D, cat#AF2018). To detect human hematopoietic cells, Pacific Blue-, PE-, APC- or FITC labeled anti-human CD45 was used (BD Biosciences). FITC anti-CD33, PE anti-CD13, FITC anti-CD41a, FITC anti-HLA DR, and PE anti-CD19 antibodies were obtained from BD Pharmingen. PE anti-CD14, PE anti-CD15 and PE anti-GlyA were acquired from Immunotech Beckman Coulter. To determine pluripotency, PE anti-SSEA3 (BD Biosciences) and PE- or AlexaFluor488 anti-Oct4 (BD Biosciences). Rabbit anti-human dopamine receptor antibodies; DRD1 (Cat#324390), DRD2 (Cat#324393), DRD3 (Cat#324402), DRD4 (Cat#324405) and DRD5 (Cat#324408) were sourced from EMD Chemical. Anti-rabbit Alexa-Fluor-488 (Molecular Probes) was used as the secondary antibody. Primary anti-p53 (Cat#2527) and anti-p21 (Cat#2947) rabbit IgG sourced from Cell Signaling Technology were used to stain fixed and permeabilized cells. Anti-rabbit alexa-Fluor-546 (Molecular Probes) was used as the secondary antibody.

[2] = test system: differentiation-associated genes in neoplastic hPSCs; experiment: TaqMan Low-Density Array-qPCR of differentiation genes; format: cell-based, human; conditions: treated neoplastic hPSCs; >2 fold increase
Experimental: Gene Expression Analysis. Cells in specific conditions were collected and RNA was extracted by using RNeasy kit (Qiagen), complementary DNA (cDNA) generation by using SuperScript III® cDNA synthesis kit (Invitrogen), pre-amplification and TaqMan® array reaction (Applied Biosystems) were performed according to manufacturer's instructions. The gene expression profile for each treated cell population was analyzed using TaqMan® Stem Cell Pluripotency Array Card on ViiA 7 Real-Time PCR System (Applied Biosystems). Each reaction sample was dispensed into loading wells on the array card and centrifuged twice at 336×g for 1 min each time, sealed, and placed in the thermal cycler. The following cycling conditions were used for all array card applications: 45° C. for 10 min, 94° C. for 10 min, and 40 cycles of 94° C. for 30 s followed by 60° C. for 1 min. Array data were normalized to 18S RNA and GAPDH and comparisons were performed using data analysis 2.0 software (Applied Biosystems).

[3] = test system: patient AML cells (CD11b); experiment: Frequency of CD11b granulocytic cells in cultured patient AML cells; format: cell-based, human; conditions: 10 μM, up to 96 hours
[4] = test system: AML LSCs (CD45+CD33+ blast engraftment); experiment: Xenotransplantation of compound-treated AML cells into NSG mice; format: in vivo
Experimental: Xenotransplantation Assays. NOD.Cg-Prkdc^scid II2rg^tm1Wjl/SzJ adult mice (NSG) were sub-lethally irradiated with 315 rads 24 hours prior transplantation. 0.8-1.0×10^7 AML MNCs or 1.5-1.8×10^5 CB lin-hematopoietic cells treated with compound or DMSO-vehicle for 24 h were injected via tail vein (IV). After 6-10 weeks, animals were culled, and the BM and spleen were analyzed for the presence of human cells by flow cytometry (LSRII, BD) and data was analyzed using FlowJo software (Tree Star Inc). For secondary HSPC transplants, equal number of engrafted human cells from CB lin− transplants were injected IV in adult irradiated NSG mice as described for primary transplants.
To delineate whether the inhibition of AML-blasts detected in vitro was due to the compounds affecting the neoplastic stem cell compartment, xenotransplantation studies (Dick, 2008) that functionally define LSCs and hematopoietic stem cells (HSCs) were conducted (FIG. 12).

SMILES: CSc1ccc2c(c1)N(CCC1CCCCN1C)c1ccccc1S2 (racemic) [thioridazine, 10-{2-[(RS)-1-Methylpiperidin-2-yl]ethyl}-2-methylsulfanylphenothiazine]
- number of CFU colonies of AML cells (primary AML cells): 1.6 blast colonies
- accumulation of cell stress marker p53 [1]: no accumulation
- accumulation of p21 [1]: no accumulation
- upregulated differentiation-associated genes [2]: 21 of 50
- frequency of granulocytic (CD11b) AML-blast cells [3]: marked increase
- leukemic disease-initiating AML LSC capacity ([4]; 10 μM, 24 h ex vivo treatment): significantly reduce
- level of leukemic engraftment of secondary transplant recipients ([4]; secondary recipients, in the absence of thioridazine): no difference
